Patent publication US20070167408A1, “NOVEL ALKYL PHOSPHOLIPID DERIVATIVES WITH REDUCED CYTOTOXICITY AND USES THEREOF” (ZENTARIS GmbH, priority 2005, published 2007)
Values after ≈ are worked out from the molar mass of the structure shown. One block for each compound: values may come before it.

How the values were obtained:
[1] = tested on: SKOV-3 (human ovary adenocarcinoma) cells; assay: XTT cytotoxicity assay, SKOV-3 cells; assay type: cell-based; details: for inhibition at 100 µM: Homo sapiens, SK-OV-3, second set of experiments, read-out: SKOV-3 % INH [100 μM]
Protocol: On the first day of the experiment cells were harvested from exponential phase cultures by trypsination, counted and plated into 96 well flat-bottom micro titer plates depending on the cell line as listed below: [table] After a 24 h recovery to allow the cells to resume exponential growth, the test compounds were diluted immediately prior to use and transferred in 25 μl volume to the wells. Following 2 days of continuous drug exposure 50 μl of freshly prepared XTT-PMS solution {2% 0.386 mg/ml PMS (N-Methyl Dibenzopyrazine Methylsulphate; Sigma, Cat. No. […] Serva, Cat. No. 38450) in RPMI 1640 medium without phenol red} was added to the wells. To measure the proportion of living cells, the cells were incubated for 3 h with XTT-PMS reagent at 37° C., 5% CO2, humidified atmosphere allowing to form the formazan salt. […] Inhibition curves were generated and IC50 values calculated by using GraphPad Prism.

[2] = tested on: RKOp21 (human colon adenocarcinoma) cells; assay: XTT cytotoxicity assay, RKOp21 cells; assay type: cell-based; details: for inhibition at 31.6 µM: read-out: RKOp21 % INH [31.6 μM]
Protocol: (§1) Cytotoxicity of selected compounds of the invention against different mammalian cell lines was assessed as follows.
(§2) Human tumor cell lines KB/HeLa (ATCC CCL17, human cervix carcinoma), PC3 (ATCC CRL1435, human prostate carcinoma) and RKOp21 (human colon adenocarcinoma; Schmidt et al., Oncogene 2000, 19: 2423-2429) cells were used in an automated XTT screening assay for the assessment of cytotoxicity.
(§3) The XTT assay quantifies cellular metabolic activity which correlates with cell viability and cell number. Test compounds (selected compounds of the invention and known substances as controls) are dissolved in culture medium at 600 μM and added to the tumor cells in 10 different concentrations in a semi-logarithmic fashion starting from 100 μM as highest concentration.
(§4) In a second set of experiments employing PC3, RKOp21 and SKOV-3 (ATCC HTB-77, human ovary adenocarcinoma) cells, test and reference compounds were dissolved in 70% Ethanol/30% H2O in a stock concentration of 10 mM and diluted in cell culture medium to yield either 31.6 μM (PC3 and RKOp21) or 100 μM (SKOV-3) final concentration.
(§5) 48 h later cellular metabolic activity of cells treated with test compounds is quantified by measurement of the absorbance at 490 nm (conversion of XTT dye) in comparison to untreated control cells (100% viability).
(§6) KB/HeLa and PC3 cells were cultivated in RPMI 1640 medium (Gibco, Cat. No. 42401-018) supplemented with 10% heat inactivated fetal calf serum (FCS, Biochrom AG, Cat. No. S0115), 2 mM L-glutamine (Gibco, Cat. No. 25030-24) and 2% Penicillin-Streptomycin (PenStrep, Gibco, Cat. No. 15140-122). RKOp21 cells were grown in DMEM+GlutaMAXTM-I medium (Gibco, Cat. No. 61965-026) supplemented with 10% heat inactivated fetal calf serum (FCS, Biochrom AG, Cat. No. S0115), 2 mM L-glutamine (Gibco, Cat. No. 25030-24), 2% Penicillin-Streptomycin (PenStrep, Gibco, Cat. No. 15140-122) and 1% 1M HEPES (Gibco, Cat. No. 15630-056). All cells were cultured at 37° C. in 5% CO2 humidified air.
(§7) On the first day of the experiment cells were harvested from exponential phase cultures by trypsination, counted and plated into 96 well flat-bottom micro titer plates depending on the cell line as listed below:
(§8) After a 24 h recovery to allow the cells to resume exponential growth, the test compounds were diluted immediately prior to use and transferred in 25 μl volume to the wells.
(§9) Following 2 days of continuous drug exposure 50 μl of freshly prepared XTT-PMS solution {2% 0.386 mg/ml PMS (N-Methyl Dibenzopyrazine Methylsulphate; Sigma, Cat. No. P9625) in PBS+98% 1 mg/ml XTT (Sodium 2,3-bis(2-methoxy-4-nitro-5-sulfophenyl)-5-[(phenylamino)carbonyl]-2H-Tetrazolium; Serva, Cat. No. 38450) in RPMI 1640 medium without phenol red} was added to the wells. To measure the proportion of living cells, the cells were incubated for 3 h with XTT-PMS reagent at 37° C., 5% CO2, humidified atmosphere allowing to form the formazan salt. The amount of soluble formazan salt produced by cellular reduction of XTT is quantified by measuring the absorbance at 490 nm using the Biomek® 2000 ELISA plate reader. %-inhibition (cytotoxicity) of each test compound was calculated in relation to untreated control cells. Inhibition curves were generated and IC50 values calculated by using GraphPad Prism.

[3] = tested on: KB/HeLa (human cervix carcinoma) cells; assay: XTT cytotoxicity assay, KB/HeLa cells; assay type: cell-based; details: Homo sapiens, HeLa; XTT, 48 h exposure; read-out: KB/HELA [IC50 (μM)]
Protocol: as §1, §2, §3, §5, §6, §7, §8, §9

[4] = tested on: PC3, RKOp21 and SKOV-3 cell lines; assay: XTT cytotoxicity assay, mean over all three cell lines; assay type: cell-based, human; details: mean value over all three cell lines
Protocol: Following 2 days of continuous drug exposure 50 μl of freshly prepared XTT-PMS solution {2% 0.386 mg/ml PMS (N-Methyl Dibenzopyrazine Methylsulphate; Sigma, Cat. No. […] Serva, Cat. No. 38450) in RPMI 1640 medium without phenol red} was added to the wells. To measure the proportion of living cells, the cells were incubated for 3 h with XTT-PMS reagent at 37° C., 5% CO2, humidified atmosphere allowing to form the formazan salt. […] Inhibition curves were generated and IC50 values calculated by using GraphPad Prism. In the following table 7 cytotoxicity results (% inhibition of cell growth) obtained in the second set of experiments for selected compounds of the invention are presented in comparison to examples of the prior art (perifosine, miltefosine). The results presented are individual values for the respective cell line as well as the mean value over all three cell lines tested.

[5] = tested on: PC3 (human prostate carcinoma) cells; assay: XTT cytotoxicity assay, PC3 cells; assay type: cell-based; details: for inhibition at 31.6 µM: read-out: PC3 % INH [31.6 μM]
Protocol: as §1, §2, §3, §4, §5, §6, §7, §8, §9

[6] = tested on: Moraxella catarrhalis DMS 11994 (ATCC 43617); assay: Anti-bacterial bouillon microdilution assay (MIC), bacterium D; assay type: cell-based; details: ATCC43617, 24 h
Protocol: Selected compounds of the invention were tested in a bouillon microdilution assay method according to the DIN 58940 (www.din.de) guidelines for determination of susceptibility of bacterial strains with regard to cell growth inhibition. The assay method quantifies bacterial cell growth which corresponds to the turbidity of the liquid culture medium by photometric measurement carried out at 595 nm.
The method of MIC determination was performed according to DIN 58940-5. The volumina were adapted according to the microdilution method as described in DIN 58940-7 guideline.
Dependent on water solubility, compounds of the invention were dissolved either in water or ethanol in a concentration of 10 mg/ml. Subsequently, the stock was further diluted in water to a concentration of 512 μg/ml. The following serial dilutions (factor 2) were performed in water resulting in the following […] testing concentrations: 256 μg/ml, 128 μg/ml, 64 μg/ml, 32 μg/ml, 16 μg/ml, 8 μg/ml, 4 μg/ml, 2 μg/ml, 1 μg/ml, 0.5 μg/ml, 0.25 μg/ml and 0.125 μg/ml. Diluted compounds of the invention were transferred in 100 μl volume to the microtiter plate wells.
Pre-cultures of bacteria were grown in appropriate liquid media (refer to ATCC webpage, www.atcc.org) and afterwards were inoculated in corresponding liquid medium. 100 μl of the inoculums [adjusted to an amount of app. 1×10^6 microorganisms per ml (range of 10^5-10^8 microorganisms per ml)] were added to each of the testing compound concentrations and cultivated under the appropriate conditions.
Before and after incubation, bacterial growth was determined by photometric analysis against a positive control containing growing bacteria without compound and a sterile/negative control containing only the medium.

[7] = Homo sapiens, 31.6 μM, second set of experiments
[8] = Homo sapiens, PC-3, 31.6 μM, second set of experiments
[9] = 31.6 μM, second set of experiments

Compound: CCCCCCCCC#CCCCCCCCCOP(=O)([O-])OCC[N+](C)(C)C [Compound 144]
- inhibition at 100 µM [1]: -3%
- inhibition at 31.6 µM [2, 7]: 48%
- IC50 ([2]; Homo sapiens, XTT, 48 h exposure, read-out: RKOp21 [IC50 (μM)]): 51.1 µM
- IC50 [3]: > 100 µM
- Mean % INH [4]: 19.7%
- inhibition at 31.6 µM [5, 8]: 14%
- IC50 ([5]; Homo sapiens, PC-3, XTT, 48 h exposure, read-out: PC3 [IC50 (μM)]): > 100 µM

- MIC [6]: 8 µg/mL (≈ 15.4 µM)
Compound: CCCCCCCCCCCCCCCCOP(=O)([O-])OCC[N+]1(C)CCCC(C(=O)OCC)C1 (centres unmarked) [Compound 260]
- inhibition at 100 µM [1]: 56.1%
- inhibition at 31.6 µM [2, 7]: 40.5%
- Mean % INH [4]: 47.3%
- inhibition at 31.6 µM [5, 8]: 45.2%

Compound: CCCCCCCCCCCCCCCCOP(=O)([O-])OCCCC[N+](C)(C)C [Compound 314]
- SKOV-3 % INH [100 μM] ([1]; second set of experiments): 33.2%
- RKOp21 % INH [31.6 μM] [2, 9]: 10.6%
- Mean % INH [4]: 31.8%
- PC3 % INH [31.6 μM] [5, 9]: 51.6%

Compound: CCCCCCCCCCCCCCCCCCOP(=O)([O-])OC1CC[N+](C)(C)CC1 [perifosine, octadecyl-1,1-dimethyl-piperidino-4-yl-phosphate, reference compound]
- inhibition at 100 µM [1]: 90.7%
- inhibition at 31.6 µM [2, 7]: 63%
- Mean % INH [4]: 78.0%
- inhibition at 31.6 µM [5, 8]: 80.2%
